Laboratory results published in patent US12653803B2, “TREM2 agonists for the stimulation of microglia and methods of identification” (THE TRANSLATIONAL GENOMICS RESEARCH INSTITUTE, priority 2017, dated 2026).
“Also recorded” adds a separate entry of the source.

How the values were obtained:
NFAT reporter = test: BW-NFAT-Luc counter screen (NFAT reporter only, no TREM2/TYROBP); type: cell-based, mouse; settings: for stimulation of the NFAT-Luc reporter-only counter screen cell line: NFAT-Luc cells without TREM2/TYROBP, sphingomyelin (120 μg/mL in counter screen)
Text: (§1) Cell-based reporter assays were developed for identifying TREM2 agonists. A mouse T-lymphocyte cell line, BW5147.3, stably co-expressing full-length TREM2, full-length TYROBP, and a reporter (e.g., firefly luciferase) driven by NFAT-response elements, was established (FIG. 2). The parental BW5147.3 cells have no detectable expression of TREM2 or TYROBP (FIG. 4B) and can be used as a counter screen cell-line to identify false positive compounds that stimulate reporter expression independent of TREM2 and TYROBP. BW5147.3 lymphocytes play a central role in the immune system and have high viability (99-100%) in culture.
A counter screen cell line only expressing the Cignal Lenti NFAT Reporter (luc) was also created in parallel to the reporter (BW-NFAT-Luc cell line). The BW-NFAT-Luc cell line has the same MOI as the TREM2/TYROBP-NFAT-Luc cell line (MOI=20) but without expression of TREM2 or TYROBP.
Transmembrane signaling via TREM2 is accomplished through an ITAM-bearing trans-membrane adaptor protein, TYROBP or DAP12. TREM2 activation leads to the induction of transcription factor NFAT. Activation of TREM2 by ligands leads to the phosphorylation of TYROBP, the activation of the reporter, and quantitative production of luciferase. Previous studies using TREM2/TYROBP/NFAT reporter cell-lines have confirmed the stimulation of NFAT transcription following TREM2 activation. Compounds that directly stimulate NFAT signaling (stimulate luciferase activity in the BW-NFAT-Luc cell line) are eliminated as false positive. Thus, the counter screen with BW-NFAT-Luc cell line eliminates the false positive hits and confirms hits from TREM2/TYROBP cell lines screened.
To eliminate the false positive hits from the primary screen that might directly stimulate NFAT signaling, a counter screen was performed with the initial 27 compounds using the BW-NFAT-Luc cell line alone. […] The primary screen with the TREM2/TYROBP Luciferase reporter cell line identified Tyrphostin AG 538 as a positive hit with a relative luminescence of 16.08 (FIG. 6A). […]

TREM2/TYROBP = target: T1, TREM2/TYROBP (Homo sapiens, UniProt Q9NZC2); test: TREM2/TYROBP/NFAT-Luc luciferase reporter cell line screen (primary screen); type: cell-based; settings: for stimulation of reporter activity in the TREM2 screening cell line: TREM2/TYROBP/NFAT-Luc cells, positive controls: sphingomyelin at increasing concentrations or 120 μg/mL, PMA (1.5 ng/mL)/Ionomycin (375 nM)
T1 construct: stably co-expressing full-length TREM2, full-length TYROBP, and a reporter (e.g., firefly luciferase) driven by NFAT-response elements; expressed in transfected cells; host or cells: BW5147.3 mouse T-lymphocyte cell line, lentiviral transduction (pTYF vectors)
Text: as §1
TREM2 and TYROBP geneArt double-stranded cDNA strings were synthesized (Life Technologies, Carlsbad, CA) and subcloned into pTYF lentiviral vectors to generate a pLenti expression clone. HEK293HT cells were next transfected using Superfect (Qiagen, Venlo, Netherlands), and viral particles were collected and concentrated. Stable expression of TREM2, TYROBP, and the Cignal Lenti NFAT Reporter (Luc) (Qiagen, Venlo, Netherlands) in BW5147.3 cells was accomplished by transduction in opti-MEM media (Life Technologies, Carlsbad, CA) containing 6 μg/ml Polybrene (Sigma-Aldrich, St. Louis, MO). […]
TREM2/TYROBP-NFAT-Luc cell line for HTS was optimized by testing TREM2-stimulated Luc-reporting as a function of growth medium, agonist concentration, induction time, assay duration, and cell density. […] Firefly luciferase levels were measured by chemiluminescence (Bright-Glo™, Promega, WI). […] The effect of reported TREM2 agonists to be served as positive controls were measured (FIG. 5), and the specific stimulation of our reporter through TREM2 by known ligand sphingomyelin was confirmed (FIG. 5).
The primary screening assay was conducted with a concentration of 5 μM for each of the 2,400 compounds (final 0.05% or 0.1% DMSO (v/v)) with two replicate screens with internal replicates. […] Subsequently, Luciferase activity was measured using Bright-Glo™ (Promega, Madison, WI).

T1 sequence (Q9NZC2 19-230, species assumed): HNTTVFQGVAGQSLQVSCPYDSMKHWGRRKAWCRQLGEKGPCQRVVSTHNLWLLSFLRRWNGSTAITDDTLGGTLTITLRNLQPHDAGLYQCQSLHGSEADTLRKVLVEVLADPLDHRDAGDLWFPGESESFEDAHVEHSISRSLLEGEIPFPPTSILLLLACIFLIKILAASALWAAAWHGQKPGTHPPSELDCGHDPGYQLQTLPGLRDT
T1 sequence (O43914 22-113 partner, species assumed): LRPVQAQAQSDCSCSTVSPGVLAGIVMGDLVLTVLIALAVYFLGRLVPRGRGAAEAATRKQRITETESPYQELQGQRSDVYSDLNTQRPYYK

Compound	stimulation of the NFAT-Luc reporter-only counter screen cell line (NFAT reporter)	stimulation of the NFAT-Luc reporter-only counter screen cell line (NFAT reporter; listed as SM)	stimulation of reporter activity in the TREM2 screening cell line (TREM2/TYROBP)	stimulation of reporter activity in the TREM2 screening cell line (TREM2/TYROBP; listed as sphingomyelin)	direct stimulation of the NFAT reporter in the counter screen (NFAT reporter; NFAT-Luc reporter cell line, 1.5, 3, 6 and 12.5 μM)	relative luminescence (TREM2/TYROBP; primary screen, 5 μM, duplicates, 8 h treatment, TREM2/TYROBP/NFAT-Luc reporter cell line, relative to DMSO vehicle)
Sphingomyelin	did not show direct stimulation of the NFAT reporter	did not show any activity	stimulates; also recorded: similarly positive results	induce reporter activity		
N#C/C(=C\c1ccc(O)c(O)c1)C(=O)c1ccc(O)c(O)c1 [Tyrphostin AG 538]					did not stimulate the NFAT reporter directly	16.08
